In data set [1] the test system is A2780 ovarian cancer cells. The experiment in a line: MTT reduction assay, 4 h, rapid toxicity, A2780. It counts as cell-based. The settings on record: 4 h treatment. As for the experimental part:
(§1) The compounds were tested between 0.001694 and 33.3333 µM, using a 4-hour-long MTT test to assess rapid toxicity and a 48-hour-long SRB assay to assess the long-term effects of the inhibition of proliferation (cytostasis). The MTT assay assesses the activity of mitochondrial complex I and detects rapid, direct toxicity, as well as indicating apoptosis and necrosis. The SRB assay measures the total protein content that is proportional to cell numbers; therefore, the assay can detect changes in cell numbers and can thus be used as a readout for cell proliferation. The SRB assay was performed after 48 h of treatment (with the exception of L428 cells, which were tested for 96 h due to their slower proliferation rate). In this setting, the SRB assay informs us of long-term changes to cell proliferation. We assessed the maximal inhibition within that concentration range, and descriptive statistics were performed. We performed a one-way ANOVA, followed by the Kruskal–Wallis test, regardless of the normal or non-normal distribution of the data. Due to the large number of significance values, the results of the significance calculations are provided in an Excel spreadsheet at https://figshare.com/s/28d14597d5041f08eb08 (accessed on 6 January 2022), among other primary data of the study. Where possible, nonlinear regression was performed on the curves to determine the IC50 values ((inhibitor) vs. response—variable slope (four parameters) method with Graphpad v8.0.1). […] In Table 5, we added the IC50 values that we determined for a set of 4 active ruthenium half-sandwich complexes we identified previously, to be used in subsequent structure-activity relationship (SAR) analyses.
(§2) A2780 cells were cultured in RMPI 1640 medium, supplemented with 10% fetal calf serum, 2 mM glutamine, and 1% penicillin-streptomycin.
The MTT reduction assay measures the activity of mitochondrial complex I and can be used to detect apoptosis and necrosis. The assay was performed similarly to the method used in [72]. Briefly, cells were plated in 96-well plates the day before the assay. Cells were treated with the compounds for 4 h, then MTT was added at 0.5 mg/mL final concentration and the cells were incubated at 37 °C in a cell incubator. The culture media were removed and the reduced MTT dye was dissolved in dimethyl-sulfoxide (DMSO) and plates were measured in a plate photometer (Thermo Scientific Multiscan GO spectrophotometer, Waltham, MA, USA) at 540 nm. On each plate, wells were designed to contain untreated/vehicle-treated cells. In the calculations, the readings for these wells were considered as 1 and all readings were expressed relative to these values.
For orientation: Formazan colour is commonly taken as a measure of viable cells.

Data set [2] deals with A2780 ovarian cancer cells. Nature of the data set: SRB assay, 48 h, cytostasis, A2780. It counts as cell-based. As to conditions: 48 h treatment. As for the experimental part: as §1, §2
(§3) The assay was performed similarly to the method used in [73]. Cells were seeded in 96-well plates the day before the assay. Cells were treated with the compounds for 48 h, with the exception of L428, where 96 h of treatment was applied. Cells were fixed with 10% trichloroacetic acid (TCA). Fixed cells were washed in distilled water 3 times, followed by staining with SRB (0.4 m/V% dissolved in 1% acetic acid) for 10 min. The stained cells were washed in 1% acetic acid 5 times; the acetic acid was removed, and the cells were left to dry. Protein-bound SRB was released by adding 100 µL 10 mM Tris base. Plates were measured in a plate photometer (Thermo Scientific Multiscan GO spectrophotometer, Waltham, MA, USA) at 540 nm. On each plate, wells were designed to contain untreated cells. In calculations, the readings for these wells were considered as 1 and all readings were expressed relative to these values.
(§4) Statistical analysis was performed using the 8.0.1 version of Graphpad Prism. Values were tested for normal distribution, using the d’Agostino and Pearson normality test. When necessary, values were log-normalized or were normalized using the Box-Cox normalization method or using a two-step transformation, as indicated in the figure captions. Nonlinear regression was performed using the built-in “[Inhibitor] vs. Response—Variable slope (four parameters), least-square fit” utility of Graphpad, yielding the IC50 and Hill slope values.
In general terms: In SRB staining, fixed cells bind dye roughly in proportion to their protein.

A short description of data set [3]: Determination of the distribution coefficients (logD), n-octanol/PBS. The settings on record: n-octanol / PBS pH = 7.40, rt. Type of data set: physicochemical. As for the experimental part: Before starting the experiments, n-octanol was saturated with an aqueous PBS solution (pH = 7.40) and vice versa. A solution of the appropriate complex (approximately 0.2–0.3 mg) in a mixture of 2.50 mL pre-saturated n-octanol and 2.50 mL pre-saturated PBS buffer was made, and the resulting mixture was then vigorously stirred for 3 days at rt. Based on our previous NMR stability experiments, this time is long enough to reach equilibrium among the various ionic complex species. Due to the lipophilic/hydrophilic features of the complexes, those with benzoyl protection could primarily be found in the n-octanol, while the complexes with O-peracetylated and O-deprotected ligands were in the aqueous PBS phase. The corresponding separated solution was centrifuged (ScanSpeed 406G instrument, 4000 RPM for 5 min) and the absorption of the ”stock solution” was determined (VWR UV-1600PC Spectrophotometer, 270–420 nm). Then, 2.00 mL of the stock solution was vigorously stirred with 16.00 mL of pre-saturated n-octanol or PBS solution. After one day had passed, the phases were separated, centrifuged, and the absorption of the solution was measured again. From the absorption difference of the stock solutions, the distribution coefficient (D) was determined using previously described formulae [71].

The test system of data set [4] is A2780 ovarian cancer cells. Set-up: method as in PMID 34638791. As to conditions: SRB assay, 48 h; data previously published; cited from earlier work.
Data set [5] deals with ID8 ovarian cancer cell line. Also on record: method as in PMID 34638791. The settings on record: SRB assay, 48 h; data previously published; cited from earlier work.
The test system of data set [6] is Capan2, a pancreatic adenocarcinoma cell line. Set-up: method as in PMID 34638791. As to conditions: SRB assay, 48 h; data previously published; cited from earlier work.
On the set-up of data set [7]: method as in PMID 34638791. As to conditions: data previously published; cited from earlier work.
Data set [8] deals with human primary fibroblasts. Also on record: method as in PMID 34638791. As to conditions: SRB assay, 48 h, data previously published, cited from earlier work.
Data set [9] relates to ID8 ovarian cancer cell line. The experiment in a line: SRB assay, 48 h, cytostasis, ID8. The settings on record: 48 h treatment. Type of data set: cell-based. As for the experimental part: as §1
ID8 cells were cultured in a high-glucose DMEM (4.5 g/L glucose) medium, supplemented with 4% fetal calf serum, 2 mM glutamine, 1% penicillin-streptomycin, and 1% ITS supplement (I3146).
as §3, §4

In data set [10] the test system is human primary fibroblasts. Nature of the data set: SRB assay, 48 h, cytostasis, primary fibroblasts. Type of data set: cell-based. The settings on record: MTT 4 h and SRB 48 h. As for the experimental part:
The compounds were tested between 0.001694 and 33.3333 µM, using a 4-hour-long MTT test to assess rapid toxicity and a 48-hour-long SRB assay to assess the long-term effects of the inhibition of proliferation (cytostasis). The MTT assay assesses the activity of mitochondrial complex I and detects rapid, direct toxicity, as well as indicating apoptosis and necrosis. The SRB assay measures the total protein content that is proportional to cell numbers; therefore, the assay can detect changes in cell numbers and can thus be used as a readout for cell proliferation. The SRB assay was performed after 48 h of treatment (with the exception of L428 cells, which were tested for 96 h due to their slower proliferation rate). In this setting, the SRB assay informs us of long-term changes to cell proliferation. We assessed the maximal inhibition within that concentration range, and descriptive statistics were performed. We performed a one-way ANOVA, followed by the Kruskal–Wallis test, regardless of the normal or non-normal distribution of the data. […]
The assay was performed similarly to the method used in [73]. […] Plates were measured in a plate photometer (Thermo Scientific Multiscan GO spectrophotometer, Waltham, MA, USA) at 540 nm. […] In calculations, the readings for these wells were considered as 1 and all readings were expressed relative to these values. […]

Here are results for ten compounds from article PMC8776094, “Reactive Oxygen Species Production Is Responsible for Antineoplastic Activity of Osmium, Ruthenium, Iridium and Rhodium Half-Sandwich Type Complexes with Bidentate Glycosyl Heterocyclic Ligands in Various Cancer Cell Models” (International Journal of Molecular Sciences, 2022).

Where “and” joins values, the source holds several entries; their conditions need not be identical. Equal values may be shown once. Read-outs that look alike come from different tables or passages of the source.

As to `Cc1ccc(C(C)C)cc1.F[P-](F)(F)(F)(F)F.O=C(OCC1OC(c2noc(-c3ccccn3)n2)C(OC(=O)c2ccccc2)C(OC(=O)c2ccccc2)C1OC(=O)c1ccccc1)c1ccccc1.[Cl][Ru+]` (mixture of isomers) [Ru-1], the “toxicity on A2780 cells in short-term MTT assay (in words)” value (from here on “toxicity on A2780 cells”) in data set [1] is listed as “neither of them showed considerable activity”. For the same compound, in data set [2], the “cytostatic activity on A2780 cells in SRB assay (in words)” value (from here on “cytostatic activity on A2780 cells”) is on record as “neither of them showed considerable activity”. The compound also came in with a LogD in data set [3] of 2.79.
With `Cc1ccc(C(C)C)cc1.F[P-](F)(F)(F)(F)F.OCC1OC(c2noc(-c3ccccn3)n2)C(O)C(O)C1O.[Cl][Ru+]` (mixture of isomers) [Ru-2], the “toxicity on A2780 cells” value in data set [1] is on record as “neither of them showed considerable activity”. Also, the “cytostatic activity on A2780 cells” value in data set [2] is “neither of them showed considerable activity”. For the same compound, the LogD in [3] is reported as −0.96.
Regarding `Cc1ccc(C(C)C)cc1.F[P-](F)(F)(F)(F)F.O=C(OCC1OC(c2nnc(-c3ccccn3)o2)C(OC(=O)c2ccccc2)C(OC(=O)c2ccccc2)C1OC(=O)c1ccccc1)c1ccccc1.[Cl][Ru+]` (mixture of isomers) [Ru-3], in [4], the “A2780 Max. Inh. (%)” value was 100%; the IC50 was 6.2 µM and 6.19 µM. For the same compound, in [5], the IC50 is 5.66 µM and the “ID8 Max. Inh. (%)” value is on record as 100%. Besides, in data set [6], the “Capan2 Max. Inh. (%)” value was 100% and the IC50 is 3.27 µM. Further, in [7], the LogD is listed as 2.41.
Consider `Cc1ccc(C(C)C)cc1.F[P-](F)(F)(F)(F)F.O=C(OCC1OC(c2nnc(-c3ccccn3)o2)C(OC(=O)c2ccccc2)C(OC(=O)c2ccccc2)C1OC(=O)c1ccccc1)c1ccccc1.[Cl][Ru+]` (mixture of isomers) [Ru-4], for which, in data set [4], the “A2780 Max. Inh. (%)” value is 100%; the IC50 is 4.3 µM and 4.27 µM. In data set [5], the IC50 was 7.94 µM and the “ID8 Max. Inh. (%)” value was 100%. Further, in data set [6], the “Capan2 Max. Inh. (%)” value is recorded as 100% and the IC50 was 3.82 µM. In addition, the LogD in [7] was 2.44.
On to `Cc1ccc(C(C)C)cc1.F[P-](F)(F)(F)(F)F.O=C(OC1COC(c2nnc(-c3ccccn3)o2)C(OC(=O)c2ccccc2)C1OC(=O)c1ccccc1)c1ccccc1.[Cl][Ru+]` (mixture of isomers) [Ru-5], for which, in data set [4], the “A2780 Max. Inh. (%)” value was 100%; the IC50 is 8.5 µM and 8.54 µM. Also, in [5], the IC50 is 6.76 µM and the “ID8 Max. Inh. (%)” value is given as 100%. In addition, in data set [6], the “Capan2 Max. Inh. (%)” value is 100% and the IC50 is 4.97 µM. Also, in data set [8] (ND = not detected), the “Fibroblast Max. Inh. (%)” value was 80%. Moreover, in [8] (read-out: Fibroblast IC50), the concentration for half-maximal inhibition (IC50) is 24.6 µM. In data set [7], the log distribution coefficient (LogD) is recorded as 2.04.
Regarding `Cc1ccc(C(C)C)cc1.F[P-](F)(F)(F)(F)F.O=C(OCC1OC(n2cc(-c3ccccn3)nn2)C(OC(=O)c2ccccc2)C(OC(=O)c2ccccc2)C1OC(=O)c1ccccc1)c1ccccc1.[Cl][Ru+]` (mixture of isomers) [Ru-6], in data set [4], the “A2780 Max. Inh. (%)” value is given as 100% and the IC50 was 0.87 µM. Besides, in [5], the IC50 was 2.15 µM and the “ID8 Max. Inh. (%)” value was 100%. Besides, in data set [6], the “Capan2 Max. Inh. (%)” value is recorded as 100% and the IC50 was 2.18 µM. Also, the LogD in [7] is 2.85.
As for `O=C(OC[C@H]1O[C@@H](c2noc(-c3ccccn3)n2)[C@H](OC(=O)c2ccccc2)[C@@H](OC(=O)c2ccccc2)[C@@H]1OC(=O)c1ccccc1)c1ccccc1` [Complex L-1, 3-(2′,3′,4′,6′-Tetra-O-benzoyl-β-D-glucopyranosyl)-5-(pyridin-2-yl)-1,2,4-oxadiazole], in data set [1], the “toxicity on A2780 cells” value is “practically inactive”. In addition, the “cytostatic activity on A2780 cells” value in [2] is “practically inactive”.
In the case of `OC[C@H]1O[C@@H](c2noc(-c3ccccn3)n2)[C@H](O)[C@@H](O)[C@@H]1O` [Complex L-2, 3-(β-D-Glucopyranosyl)-5-(pyridin-2-yl)-1,2,4-oxadiazole], the “toxicity on A2780 cells” value in data set [1] is “practically inactive”. Moreover, the “cytostatic activity on A2780 cells” value in data set [2] is “practically inactive”.
Consider `Cc1c(C)c(C)[c-](C)c1C.Cc1c(C)c(C)[c-](C)c1C.[Cl-].[Cl-].[Cl-].[Cl-].[Ir+3].[Ir+3]` [Ir-dimer, dichloro(pentamethylcyclopentadienyl)iridium(III) dimer], for which the “cytostatic activity on A2780 cells” value in data set [2] is “inactive”. Also, the “cytostatic activity on ID8 cells, SRB assay (in words)” value in data set [9] is “inactive”. Besides, the “cytotoxic or cytostatic activity on fibroblasts (in words)” value in data set [10] is “None of the complexes, Ir-1‒Ir-12, or the Ir-dimer exerted cytotoxic or cytostatic activity on fibroblasts”.
For “dichloro(pentamethylcyclopentadienyl)rhodium(III) dimer [Rh-dimer]”, the “cytostatic activity on A2780 cells” value in data set [2] was “inactive”. Besides, the “cytostatic activity on ID8 cells, SRB assay (in words)” value in data set [9] was “inactive”. The “cytotoxic or cytostatic activity on fibroblasts (in words)” value in data set [10] is reported as “None of the complexes Rh-3‒Rh-6 or the Rh-dimer exerted cytotoxic or cytostatic activity on fibroblasts”.

In general, LogD refers to the decadic logarithm of the distribution of all forms, ionised or not, between an organic phase and buffer at a given pH. Usually IC50 stands for the concentration needed to halve the response being measured.
